Legend:
[1] = tested on: RR-MS patients; assay: European/Canadian MRI trial, GA-treated PGx cohort: response by SNP genotype ("combined" response definition); format: in vivo, human
Source text: (§1) Two clinical trials, the European/Canadian trial and U.S. pivotal trial, were used to identify associations between GA responsiveness and SNPs in RR-MS patients. Caucasian patients, that had participated in one of two previously completed randomized, double blind, placebo-controlled, multi-centric clinical trials, were solicited to partake in the present study. In both clinical trials, patients were required to have a diagnosis of definite MS (Poser C M, et al. Ann Neurol., 13(3):227-31 (1983) and a relapsing-remitting course (Lublin F D and Reingold S C, Neurology 46(4):907-11 (1996). Ultimately, 73 and 101 DNA samples of Caucasian patients from the U.S. pivotal and European/Canadian MRI trials, respectively, were analyzed. GA dosage was consistent for both trials (i.e. daily 20-mg subcutaneous injection). Table I compares multiple variables between the general cohort study and the PGx cohort study for the European/Canadian trial and the U.S. pivotal trial.
(§2) Subjects were selected from two previously completed randomized, double blind, placebo-controlled, multi-centric clinical trials. In both clinical trials, patients were required to have a diagnosis of definite MS (Poser C M, et al. New diagnostic criteria for multiple sclerosis: guidelines for research protocols. Ann Neurol., (1983);13(3):227-31) and a relapsing-remitting course (Lublin F D, Reingold S C. Defining the clinical course of multiple sclerosis: results of an international survey. National Multiple Sclerosis Society (USA) Advisory Committee on Clinical Trials of New Agents in Multiple Sclerosis. Neurology, (1996);46(4):907-11) 85 (33.9%) out of 251 patients from the U.S. pivotal trial (Johnson K P, et al. Copolymer 1 reduces relapse rate and improves disability in relapsing-remitting multiple sclerosis: results of a phase 111 multicenter, double-blind placebo-controlled trial. The Copolymer 1 Multiple Sclerosis Study Group. Neurology, (1995);45(7):1268-76; Johnson K P, et al. Extended use of glatiramer acetate (COPAXONE) is well tolerated and maintains its clinical effect on multiple sclerosis relapse rate and degree of disability. Copolymer 1 Multiple Sclerosis Study Group. Neurology, (1998);50(3):701-8), and 108 (45.2%) out of 239 patients from the European/Canadian MRI trial (Comi G, Filippi M, Wolinsky J S. European/Canadian multicenter, double-blind, randomized, placebo-controlled study of the effects of glatiramer acetate on magnetic resonance imaging—measured disease activity and burden in patients with relapsing multiple sclerosis. European/Canadian glatiramer acetate Study Group. Ann Neurol., (2001);49(3):290-7) (including patients from Holland, Italy, Belgium, UK, Canada) consented to participate in this study. The same dosage of GA (i.e. daily 20-mg subcutaneous injection) was used in both trials. Although in the original trials patients were equally assigned to either GA- or placebo-treatment, the ratios in the current PGx study were 37:36 and 4952, for the U.S. pivotal and the European/Canadian MRI trials, respectively. Table I indicates various variables between the General Cohort study and the PGx Cohort study for both the European/Canadian trial and the U.S. pivotal trial.
(§3) The primary endpoint in the European/Canadian MRI trial was the accumulated number of TI-enhancing lesions during 9 months, and an additional inclusion criterion was used calling for the presence of at least one TI-enhancing lesion on MRI screening. The primary end-point for the U.S. pivotal trial was the annualized relapse-rate after two years of treatment.
(§4) The procedure used stringent definitions for response to GA therapy. […] For validation purposes response was also treated as a continuous variable where number of new T1-enhancing lesions within the third trimester was analyzed as the […] variable. […]

[2] = tested on: RR-MS patients; assay: European/Canadian MRI trial, GA-treated PGx cohort: response by SNP genotype ("T1 lesion-free" response definition); format: in vivo, human
Source text: as §1, §2, §3, §4

[3] = tested on: RR-MS; details: in vivo; cited from earlier work
[4] = tested on: MHC class II molecules on murine and human antigen-presenting cells; details: cited from earlier work
[5] = tested on: dendritic cells; details: through modulation of dendritic cells; cited from earlier work
[6] = tested on: skin graft, thyroid grafts; details: across minor and major histocompatibility barriers; cited from earlier work
[7] = tested on: murine models resembling inflammatory bowel disease; details: severe ulceration and inflammation; cited from earlier work
[8] = CD80_rs527004, GEN = 0, GA(N = 41)
[9] = CD80_rs527004, GEN = 1, GA(N = 41)
[10] = CD86_rs1129055, GEN = 0, GA(N-35)
[11] = CD86_rs1129055, GEN = 1, GA(N-35)
[12] = CD86_rs1129055, GEN = 2, GA(N-35)
[13] = CD86_rs2001791, GEN = 0, GA(N = 48)
[14] = CD86_rs2001791, GEN = 1, GA(N = 48)
[15] = CD86_rs2001791, GEN = 2, GA(N = 48)
[16] = CD95_rs9827641, GEN = 0, GA(N-47)
[17] = CD95_rs9827641, GEN = 1, GA(N-47)
[18] = CTSS_rs1415148, GEN = 0, GA(N = 47)
[19] = CTSS_rs1415148, GEN = 1, GA(N = 47)
[20] = CTSS_rs1415148, GEN = 2, GA(N = 47)
[21] = CTSS_rs2275235, GEN = 0, GA(N = 43)
[22] = CTSS_rs2275235, GEN = 1, GA(N = 43)
[23] = CTSS_rs2275235, GEN = 2, GA(N = 43)
[24] = MBP_rs470929, GEN = 0, GA(N-32)
[25] = MBP_rs470929, GEN = 1, GA(N-32)
[26] = MBP_rs470929, GEN = 2, GA(N-32)
[27] = TCRB_rs71878, GEN = 0, GA(N = 43)
[28] = TCRB_rs71878, GEN = 1, GA(N = 43)
[29] = TCRB_rs71878, GEN = 2, GA(N = 43)

glatiramer acetate [GA]
percentage of responders out of carriers of genotype [1, 8]: (35.29%) | responders/carriers of genotype [1, 8]: 12/34 | percentage of responders out of carriers of genotype [1, 9]: 85.71% | responders/carriers of genotype [1, 9]: 6/7 | responders/carriers of genotype ([1]; CD80_rs527004, GEN = 2, GA(N = 41)): 0/0 | percentage of responders out of carriers of genotype [1, 10]: (16.67%) | responders/carriers of genotype [1, 10]: 3/18 | percentage of responders out of carriers of genotype [1, 11]: (60%) | responders/carriers of genotype [1, 11]: 9/15 | percentage of responders out of carriers of genotype [1, 12]: (50%) | responders/carriers of genotype [1, 12]: 1/2 | percentage of responders out of carriers of genotype [1, 13]: (28.21%) | responders/carriers of genotype [1, 13]: 11/39 | percentage of responders out of carriers of genotype [1, 14]: 62.5%) | responders/carriers of genotype [1, 14]: 5/8 | percentage of responders out of carriers of genotype [1, 15]: (100%) | responders/carriers of genotype [1, 15]: 1/1 | percentage of responders out of carriers of genotype [1, 16]: (22.53%) | responders/carriers of genotype [1, 16]: 5/24 | percentage of responders out of carriers of genotype [1, 17]: (31.25%) | responders/carriers of genotype [1, 17]: 5/16 | percentage of responders out of carriers of genotype ([1]; CD95_rs9827641, GEN = 2, GA(N-47)): ((71.43%)^ | percentage of responders out of carriers of genotype [1, 18]: (15%) | responders/carriers of genotype [1, 18]: 3/20 | percentage of responders out of carriers of genotype [1, 19]: (42.86%) | responders/carriers of genotype [1, 19]: 9/21 | percentage of responders out of carriers of genotype [1, 20]: (83.33%) | responders/carriers of genotype [1, 20]: 5/6 | percentage of responders out of carriers of genotype [1, 21]: (19.35%) | responders/carriers of genotype [1, 21]: 6/31 | percentage of responders out of carriers of genotype [1, 22]: (66.67%) | responders/carriers of genotype [1, 22]: 4/6 | percentage of responders out of carriers of genotype [1, 23]: (83.33%) | responders/carriers of genotype [1, 23]: 5/6 | percentage of responders out of carriers of genotype [1, 24]: (18.18%) | responders/carriers of genotype [1, 24]: 2/11 | percentage of responders out of carriers of genotype [1, 25]: (43.75%) | responders/carriers of genotype [1, 25]: 7/16 | percentage of responders out of carriers of genotype [1, 26]: (100%) | responders/carriers of genotype [1, 26]: 5/5 | percentage of responders out of carriers of genotype [2, 27]: 62.07% | responders/carriers of genotype [2, 27]: 18/29 | percentage of responders out of carriers of genotype [2, 28]: (90%) | responders/carriers of genotype [2, 28]: 9/10 | percentage of responders out of carriers of genotype [2, 29]: (100%) | responders/carriers of genotype [2, 29]: 4/4 | relapse rate and CNS activity [3]: effectiveness in reducing relapse rate and CNS activity | binding to MHC class II molecules [4]: very rapid, high, and efficient binding | Th2 cell development and IL-10 production [5]: promotes T helper 2 (Th2) cell development and increased IL-10 production | amelioration of graft rejection [6]: prolongation of skin graft survival and inhibition of functional deterioration of thyroid grafts | macroscopic colonic damage [7]: reduce macroscopic colonic damage
